For 18 compounds, IC50 results are on record in US20230092890A1, “1, 3, 4-Oxadiazole derivative compounds as histone deacetylase 6 inhibitor, and the pharmaceutical composition comprising the same” (Chong Kun Dang Pharmaceutical Corp., priority 2019, published 2023).

The target in one test is T1, HDAC6 human recombinant (Homo sapiens, UniProt Q9UBN7).
T1 construct: purchased Calbiochem 382180
T1 sequence (Q9UBN7 1-1215): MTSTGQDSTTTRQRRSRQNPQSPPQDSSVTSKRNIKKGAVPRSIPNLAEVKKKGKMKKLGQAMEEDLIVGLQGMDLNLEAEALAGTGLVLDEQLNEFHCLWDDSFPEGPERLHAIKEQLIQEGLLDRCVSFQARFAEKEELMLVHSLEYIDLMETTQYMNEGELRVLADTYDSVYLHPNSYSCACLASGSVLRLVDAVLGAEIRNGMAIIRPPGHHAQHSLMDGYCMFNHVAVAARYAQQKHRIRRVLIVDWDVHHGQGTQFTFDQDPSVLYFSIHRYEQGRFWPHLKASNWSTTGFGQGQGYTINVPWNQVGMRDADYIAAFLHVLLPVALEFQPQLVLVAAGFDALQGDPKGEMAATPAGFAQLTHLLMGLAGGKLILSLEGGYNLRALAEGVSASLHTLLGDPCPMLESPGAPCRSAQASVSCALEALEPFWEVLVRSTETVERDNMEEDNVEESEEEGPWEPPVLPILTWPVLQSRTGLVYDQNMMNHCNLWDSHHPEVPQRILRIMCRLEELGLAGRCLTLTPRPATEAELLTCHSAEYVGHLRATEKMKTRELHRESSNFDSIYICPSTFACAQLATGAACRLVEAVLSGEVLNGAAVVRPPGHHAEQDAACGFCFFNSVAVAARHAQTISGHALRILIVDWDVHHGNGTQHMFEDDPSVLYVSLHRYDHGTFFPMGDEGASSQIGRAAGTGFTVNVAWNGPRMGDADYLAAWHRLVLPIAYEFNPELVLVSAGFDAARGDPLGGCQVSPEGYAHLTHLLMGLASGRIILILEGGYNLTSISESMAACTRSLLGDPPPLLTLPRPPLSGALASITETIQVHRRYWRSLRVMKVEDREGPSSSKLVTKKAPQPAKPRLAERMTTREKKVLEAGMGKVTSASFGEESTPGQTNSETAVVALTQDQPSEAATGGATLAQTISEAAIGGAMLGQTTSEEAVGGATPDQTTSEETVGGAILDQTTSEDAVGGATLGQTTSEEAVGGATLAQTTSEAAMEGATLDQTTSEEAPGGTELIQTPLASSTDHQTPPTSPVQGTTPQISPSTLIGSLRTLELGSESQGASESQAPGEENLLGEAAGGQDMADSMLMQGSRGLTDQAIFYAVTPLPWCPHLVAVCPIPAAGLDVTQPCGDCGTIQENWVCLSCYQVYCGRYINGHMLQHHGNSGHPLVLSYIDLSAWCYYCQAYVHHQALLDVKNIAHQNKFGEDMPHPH
Put plainly: HDAC enzyme activity inhibition (in vitro), HDAC6 assay. The settings on record: samples at 0.1, 1, 10, 100 and 1000 nM; 37° C. 60 minutes; fluorescence Ex 390, Em 460; read-out: HDAC6 IC50. The format is biochemical. The essentials:
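Fluorescence (Ex 390, Em 460) read after a 37° C, 60 min enzyme reaction and a further 30 min developer step at 37° C. Uses recombinant human HDAC6; HDAC1 arm dosed at 100, 1000, 10000 nM.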

The next test deals with T2, HDAC1 (Homo sapiens, UniProt Q13547).
T2 construct: purchased Enzolifesciences BML-AK511
In words: HDAC enzyme activity inhibition (in vitro), HDAC1 Fluorimetric Drug Discovery Assay Kit. Particulars: samples at 100, 1000 and 10000 nM; 37° C. 60 minutes; fluorescence Ex 390, Em 460; read-out: HDAC1 IC50. The format is biochemical. The essentials: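 Each sample reacted with enzyme for 60 min at 37° C before a 30-min developer step at the same temperature. HDAC1 doses spanned 100 to 10000 nM. Fluorescent signal was read at Ex 390/Em 460.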

Molecules are shown by their SMILES. A value given as a limit tells only on which side of the number the result lay.

T2 sequence (Q13547 whole entry): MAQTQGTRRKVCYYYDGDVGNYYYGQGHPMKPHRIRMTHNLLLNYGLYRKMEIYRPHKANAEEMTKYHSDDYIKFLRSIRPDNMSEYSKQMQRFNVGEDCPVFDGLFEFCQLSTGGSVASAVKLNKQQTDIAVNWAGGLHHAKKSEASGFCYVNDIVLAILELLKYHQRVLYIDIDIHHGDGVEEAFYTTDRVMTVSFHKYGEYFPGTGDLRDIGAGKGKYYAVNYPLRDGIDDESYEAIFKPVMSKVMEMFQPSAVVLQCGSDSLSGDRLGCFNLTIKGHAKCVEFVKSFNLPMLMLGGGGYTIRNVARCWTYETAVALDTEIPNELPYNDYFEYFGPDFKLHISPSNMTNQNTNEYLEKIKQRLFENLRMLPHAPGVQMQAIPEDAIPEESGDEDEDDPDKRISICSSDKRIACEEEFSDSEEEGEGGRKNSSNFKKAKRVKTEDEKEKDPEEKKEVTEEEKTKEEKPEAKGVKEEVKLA

As for `CC(=O)N1CCC(n2c(=O)n(Cc3ccc(-c4nnc(C(F)F)o4)cn3)c3cc(F)c(F)cc32)CC1` [Compound 173, 1-(1-acetylpiperidine-4-yl)-3-((5-(5-(difluoromethyl)-1,3,4-oxadiazole-2-yl)pyridine-2-yl)methyl)-5,6-difluoro-1,3-dihydro-2H-benzo[d]imidazole-2-one], the half-inhibitory concentration (IC50) (as a rule, the point on the concentration scale where inhibition reaches its midpoint) is 31 nM on HDAC6 human recombinant and more than 10000 nM on HDAC1.

Regarding `CC(=O)N1CCC(n2c(=O)n(Cc3ccc(-c4nnc(C(F)F)o4)cc3F)c3cc(F)c(F)cc32)CC1` [Compound 174, 1-(1-acetylpiperidine-4-yl)-3-(4-(5-(difluoromethyl)-1,3,4-oxadiazole-2-yl)-2-fluorobenzyl)-5,6-difluoro-1,3-dihydro-2H-benzo[d]imidazole-2-one], the figures for the IC50 on HDAC6 human recombinant and on HDAC1 were 50 nM and more than 10000 nM, respectively.

As for `CC(=O)N1CCC(n2c(=O)n(Cc3ccc(-c4nnc(C(F)F)o4)cc3)c3cc(F)c(F)cc32)CC1` [Compound 175, 1-(1-acetylpiperidine-4-yl)-3-(4-(5-(difluoromethyl)-1,3,4-oxadiazole-2-yl)benzyl)-5,6-difluoro-1,3-dihydro-2H-benzo[d]imidazole-2-one], the results for the IC50 at HDAC6 human recombinant and on HDAC1 were 50 nM and more than 10000 nM, respectively.

Regarding `CC(=O)N1CCC(n2c(=O)n(Cc3ccc(-c4nnc(C(F)F)o4)cn3)c3cc(C(F)(F)F)ccc32)CC1` [Compound 176, 1-(1-acetylpiperidine-4-yl)-3-((5-(5-(difluoromethyl)-1,3,4-oxadiazole-2-yl)pyridine-2-yl)methyl)-5-(trifluoromethyl)-1,3-dihydro-2H-benzo[d]imidazole-2-one], the IC50 on HDAC6 human recombinant was 42 nM; at HDAC1, more than 10000 nM.

As to `Cc1ccc(-c2cc3c(cc2F)n(Cc2ccc(-c4nnc(C(F)F)o4)cn2)c(=O)n3C)o1` [Compound 177, 1-((5-(5-(difluoromethyl)-1,3,4-oxadiazole-2-yl)pyridine-2-yl)methyl)-6-fluoro-3-methy 1-5-(5-methylfuran-2-yl)-1,3-dihydro-2H-benzo[d]imidazole-2-one], the IC50 is 71 nM on HDAC6 human recombinant and more than 10000 nM on HDAC1.

`Cc1noc(C)c1-c1cc2c(cc1F)n(Cc1ccc(-c3nnc(C(F)F)o3)cn1)c(=O)n2C` [Compound 178, 1-((5-(5-(difluoromethyl)-1,3,4-oxadiazole-2-yl)pyridine-2-yl)methyl)-5-(3,5-dimethylisoxazole-4-yl)-6-fluoro-3-methyl-1,3-dihydro-2H-benzo[d]imidazole-2-one]: the IC50 on HDAC6 human recombinant was 20 nM; on HDAC1, more than 10000 nM.

Consider `CN1CCC(n2c(=O)n(Cc3ccc(-c4nnc(C(F)F)o4)cc3F)c3ccc(C4CCN(C(=O)CO)CC4)cc32)CC1` [Compound 179, 1-(4-(5-(difluoromethyl)-1,3,4-oxadiazole-2-yl)-2-fluorobenzyl)-5-(1-(2-hydroxyacetyl)piperidine-4-yl)-3-(1-methylpiperidine-4-yl)-1,3-dihydro-2H-benzo[d]imidazole-2-one], for which the figures for the IC50 on HDAC6 human recombinant and on HDAC1 were 145 nM and more than 10000 nM, respectively.

In the case of `CC(=O)N1CCC(n2c(=O)n(Cc3ccc(-c4nnc(C(F)F)o4)cc3F)c3cc(C(F)(F)F)ccc32)CC1` [Compound 180, 1-(1-acetylpiperidine-4-yl)-3-(4-(5-(difluoromethyl)-1,3,4-oxadiazole-2-yl)-2-fluorobenzyl)-5-(trifluoromethyl)-1,3-dihydro-2H-benzo[d]imidazole-2-one], the IC50 at HDAC6 human recombinant was 38 nM; at HDAC1, more than 10000 nM.

For the compound `CC(=O)N1CCC(n2c(=O)n(Cc3ccc(-c4nnc(C(F)F)o4)cn3)c3ccc(Cl)cc32)CC1` [Compound 181, 3-(1-acetylpiperidine-4-yl)-5-chloro-1-((5-(5-(difluoromethyl)-1,3,4-oxadiazole-2-yl)pyridine-2-yl)methyl)-1,3-dihydro-2H-benzo[d]imidazole-2-one], the values for the IC50 on HDAC6 human recombinant and at HDAC1 were 68 nM and more than 10000 nM, respectively.

Consider `CC(=O)N1CCC(n2c(=O)n(Cc3ccc(-c4nnc(C(F)F)o4)cc3F)c3ccc(Cl)cc32)CC1` [Compound 182, 3-(1-acetylpiperidine-4-yl)-5-chloro-1-(4-(5-(difluoromethyl)-1,3,4-oxadiazole-2-yl)-2-fluorobenzyl)-1,3-dihydro-2H-benzo[d]imidazole-2-one], for which the IC50 at HDAC6 human recombinant is 118 nM; at HDAC1, more than 10000 nM.

In the case of `CC(=O)N1CCC(n2c(=O)n(Cc3ccc(-c4nnc(C(F)F)o4)cc3)c3ccc(Cl)cc32)CC1` [Compound 183, 3-(1-acetylpiperidine-4-yl)-5-chloro-1-(4-(5-(difluoromethyl)-1,3,4-oxadiazole-2-yl)benzyl)-1,3-dihydro-2H-benzo[d]imidazole-2-one], the figures for the half-inhibitory concentration (IC50) on HDAC6 human recombinant and on HDAC1 were 73 nM and more than 10000 nM, respectively.

With `CC(=O)N1CCC(n2c(=O)n(Cc3ccc(-c4nnc(C(F)F)o4)cn3)c3ncccc32)CC1` [Compound 184, 1-(1-acetylpiperidine-4-yl)-3-((5-(5-(difluoromethyl)-1,3,4-oxadiazole-2-yl)pyridine-2-yl)methyl)-1,3-dihydro-2H-imidazo[4,5-b]pyridine-2-one], the 50% inhibitory concentration (IC50) on HDAC6 human recombinant was 137 nM; at HDAC1, more than 10000 nM.

In the case of `CC(=O)N1CCC(n2c(=O)n(Cc3ccc(-c4nnc(C(F)F)o4)cc3F)c3ncccc32)CC1` [Compound 185, 1-(1-acetylpiperidine-4-yl)-3-(4-(5-(difluoromethyl)-1,3,4-oxadiazole-2-yl)-2-fluorobenzyl)-1,3-dihydro-2H-imidazo[4,5-b]pyridine-2-one], the IC50 is 202 nM at HDAC6 human recombinant and more than 10000 nM at HDAC1.

With `CC(=O)N1CCC(n2c(=O)n(Cc3ccc(-c4nnc(C(F)F)o4)cc3)c3ncccc32)CC1` [Compound 186, 1-(1-acetylpiperidine-4-yl)-3-(4-(5-(difluoromethyl)-1,3,4-oxadiazole-2-yl)benzyl)-1,3-dihydro-2H-imidazo[4,5-b]pyridine-2-one], the IC50 on HDAC6 human recombinant is 554 nM; on HDAC1, more than 10000 nM.

Turning to `CC(=O)N1CCC(n2c(=O)n(Cc3ccc(-c4nnc(C(F)F)o4)cn3)c3ccccc32)CC1` [Compound 187, 1-(1-acetylpiperidine-4-yl)-3-((5-(5-(difluoromethyl)-1,3,4-oxadiazole-2-yl)pyridine-2-yl)methyl)-1,3-dihydro-2H-benzo[d]imidazole-2-one], the 50% inhibitory concentration (IC50) on HDAC6 human recombinant was 64 nM; at HDAC1, more than 10000 nM.

As for `O=c1n(Cc2ccc(-c3nnc(C(F)F)o3)cc2F)c2cc(F)ccc2n1C1CCS(=O)(=O)CC1` [Compound 189, 3-(4-(5-(difluoromethyl)-1,3,4-oxadiazole-2-yl)-2-fluorobenzyl)-1-(1,1-dioxydotetrahydro-2H-thiopyran-4-yl)-5-fluoro-1,3-dihydro-2H-benzo[d]imidazole-2-one], the IC50 at HDAC6 human recombinant was 37 nM; on HDAC1, more than 10000 nM.

For `O=c1n(Cc2ccc(-c3nnc(C(F)F)o3)cc2)c2cc(F)ccc2n1C1CCS(=O)(=O)CC1` [Compound 190, 3-(4-(5-(difluoromethyl)-1,3,4-oxadiazole-2-yl)benzyl)-1-(1,1-dioxydotetrahydro-2H-thiopyran-4-yl)-5-fluoro-1,3-dihydro-2H-benzo[d]imidazole-2-one], the values for the half-maximal inhibitory concentration (IC50) at HDAC6 human recombinant and on HDAC1 were 46 nM and more than 10000 nM, respectively.

Take `CS(=O)(=O)N1CCC(n2c(=O)n(Cc3ccc(-c4nnc(C(F)F)o4)cn3)c3c(F)cccc32)CC1` [Compound 191, 3-((5-(5-(difluoromethyl)-1,3,4-oxadiazole-2-yl)pyridine-2-yl)methyl)-4-fluoro-1-(1-(methylsulfonyl)piperidine-4-yl)-1,3-dihydro-2H-benzo[d]imidazole-2-one]: the half-inhibitory concentration (IC50) at HDAC6 human recombinant is 37 nM; on HDAC1, more than 10000 nM.
